pEC50: −log10 of the molar value. Some results are limits rather than exact numbers.

This test concerns Tacaribe virus (TRVL 11573). The test can be described thus: microbe, parasite or virus in culture. The class given is cell-based. Conditions: Mammarenavirus tacaribeense, Vero, read-out: Tacaribe EC50.
On to `CC(NC(=O)Nc1ccc(Br)cc1OC(F)(F)F)(C(F)(F)F)C(F)(F)F` [Example 95, 1-(4-Bromo-2-trifluoromethoxyphenyl)-3-(2,2,2-trifluoro-1-methyl-1-trifluoromethylethyl)-urea], for which the pEC50 was under 5.30. The result for `Cc1cccc(S(=O)(=O)NNC(=O)NC(C)(C(F)(F)F)C(F)(F)F)c1` [Example 22, N-2-(1,1,1,3,3,3-Hexafluoro-2-methylpropyl)-2-[(3-methylphenyl)sulfonyl]hydrazine-1-carboxamide] reads 6.00 to 6.30.

Take `COc1cc(NC(=O)NC(C)(C(F)(F)F)C(F)(F)F)cc(OC)c1OC` [Example 55, 1-(2,2,2-trifluoro-1-methyl-1-trifluoromethylethyl)-3-(3,4,5-trimethoxyphenyl)-urea]: the negative logarithm of the EC50 (pEC50) was 6.00 to 6.30. The result for `CC(NC(=O)NNS(=O)(=O)c1ccc(F)c(F)c1)(C(F)(F)F)C(F)(F)F` [Example 37, N-2-(1,1,1,3,3,3-Hexafluoro-2-methylpropyl)-2-[(3,4-difluorophenyl)sulfonyl]hydrazine-1-carboxamide] reads 5.30 to 6.00; that for `CC(NC(=O)Nc1ccc(C#N)cc1)(C(F)(F)F)C(F)(F)F` [Example 83, 1-(4-Cyanophenyl)-3-(2,2,2-trifluoro-1-methyl-1-trifluoromethylethyl)-urea], 5.30 to 6.00.

Turning to `CC(NC(=O)N1CCN(c2ccccc2)CC1)(C(F)(F)F)C(F)(F)F` [Example 51, 4-Phenylpiperazine-1-(2,2,2-trifluoro-1-methyl-1-trifluoromethylethyl)-carboxamide], the pEC50 is over 6.30. In the case of `CC(NC(=O)Nc1ccc(C(=O)O)cc1OC(F)(F)F)(C(F)(F)F)C(F)(F)F` [Example 74, 3-Trifluormethoxy-4-[3-(1,1-bis-trifluoromethylethyl)-ureido]benzoic acid], the negative logarithm of the EC50 (pEC50) is 5.30 to 6.00. Under `CC(NC(=O)Nc1ccccc1-c1ccccc1)(C(F)(F)F)C(F)(F)F` [Example 61] stands 5.30 to 6.00. In the case of `CC(NC(=O)NNS(=O)(=O)c1ccc(C(F)(F)F)cc1)(C(F)(F)F)C(F)(F)F` [Example 23, N-2-(1,1,1,3,3,3-Hexafluoro-2-methylpropyl)-2-[(4-trifluoromethylphenyl)sulfonyl] hydrazine-1-carboxamide], the negative logarithm of the EC50 (pEC50) is 6.00 to 6.30. In the case of `CC(NC(=O)NNS(=O)(=O)c1cc(F)ccc1F)(C(F)(F)F)C(F)(F)F` [Example 42, N-2-(1,1,1,3,3,3-Hexafluoro-2-methylpropyl)-2-[(2,5-difluorophenyl)sulfonyl]hydrazine-1-carboxamide], the pEC50 was 5.30 to 6.00. Under `CC(NC(=O)NNS(=O)(=O)c1ccc(N2CCOCC2)nc1)(C(F)(F)F)C(F)(F)F` [Example 27, N-2-(1,1,1,3,3,3-Hexafluoro-2-methylpropyl)-2-(2-(5-morpholin-4-yl)pyridylsulfonyl]hydrazine-1-carboxamide] stands 5.30 to 6.00; under `CC(C)(C)c1ccc(S(=O)(=O)NNC(=O)NC(C)(C(F)(F)F)C(F)(F)F)cc1` [Example 2], over 6.30; under `COc1ccc(S(=O)(=O)NNC(=O)NC(C)(C(F)(F)F)C(F)(F)F)c(OC)c1` [Example 20, N-2-(1,1,1,3,3,3-Hexafluoro-2-methylpropyl)-2-[(2,4-dimethoxyphenyl)sulfonyl] hydrazine-1-carboxamide], 6.00 to 6.30.

Consider `CC(NC(=O)Nc1ccccc1C(N)=O)(C(F)(F)F)C(F)(F)F` [Example 63, 2-[3-(1,1-Bis-trifluoromethylethyl)-ureido]benzamide], for which the pEC50 was 5.30 to 6.00. Under `CN1CCN(C(=O)NC(C)(C(F)(F)F)C(F)(F)F)CC1` [Example 57, 4-Methylpiperazine-1-(2,2,2 trifluoro-1-methyl-1-trifluoromethylethyl)-carboxamide] stands 5.30 to 6.00. Consider `CC(NC(=O)Nc1c(F)cccc1Cl)(C(F)(F)F)C(F)(F)F` [Example 64, 1-(2-Chloro-6-fluorophenyl)-3-(2,2,2-trifluoro-1-methyl-1-trifluoromethylethyl)-urea], for which the pEC50 was 5.30 to 6.00. Under `CC(NC(=O)NNS(=O)(=O)c1cccc(F)c1)(C(F)(F)F)C(F)(F)F` [Example 36, N-2-(1,1,1,3,3,3-Hexafluoro-2-methylpropyl)-2-[(3-fluorophenyl)sulfonyl]hydrazine-1-carboxamide] stands 5.30 to 6.00; under `CC(NC(=O)Nc1cccc2ccccc12)(C(F)(F)F)C(F)(F)F` [Example 58, 1-Naphthalen-1-yl-3-(2,2,2-trifluoro-1-methyl-1-trifluoromethylethyl)-urea], 5.30 to 6.00. Under `CC(NC(=O)Nc1cccc2c1OC(F)(F)O2)(C(F)(F)F)C(F)(F)F` [Example 84, 1-(2,2-Difluorobenzo[1,3]dioxol-4-yl)-3-(2,2,2-trifluoro-1-methyl-1-trifluoromethylethyl)-urea] stands 5.30 to 6.00; under `CC(NC(=O)Nc1ccc(Cl)cc1)(C(F)(F)F)C(F)(F)F` [Example 85, 1-(4-Chlorophenyl)-3-(2,2,2-trifluoro-1-methyl-1-trifluoromethylethyl)-urea], under 5.30; under `CC(NC(=O)Nc1ccccc1C#N)(C(F)(F)F)C(F)(F)F` [Example 82, 1-(2-Cyanophenyl)-3-(2,2,2-trifluoro-1-methyl-1-trifluoromethylethyl)-urea], 5.30 to 6.00. `CC(NC(=O)NNS(=O)(=O)c1ccc(Cl)cc1Cl)(C(F)(F)F)C(F)(F)F` [Example 29, N-2-(1,1,1,3,3,3-Hexafluoro-2-methylpropyl)-2-[(2,4-dichlorophenyl)sulfonyl]hydrazine-1-carboxamide]: the pEC50 was 5.30 to 6.00. `CC(NC(=O)NNS(=O)(=O)c1ccc(S(=O)(=O)N2CCCC2)cc1)(C(F)(F)F)C(F)(F)F` [Example 25, N-2-(1,1,1,3,3,3-Hexafluoro-2-methylpropyl)-2-[4-(pyrrolidin-1-sulfonyl)phenylsulfonyl]hydrazine-1-carboxamide]: the negative-log EC50 (pEC50) was 5.30 to 6.00. `CC(NC(=O)NNS(=O)(=O)c1ccc(-c2ccccc2)cc1)(C(F)(F)F)C(F)(F)F` [Example 1]: the pEC50 is over 6.30. With `Cc1ccccc1NC(=O)NC(C)(C(F)(F)F)C(F)(F)F` [Example 89, 1-(2-Methylphenyl)-3-(2,2,2-trifluoro-1-methyl-1-trifluoromethylethyl)-urea], the negative logarithm of the EC50 (pEC50) is under 5.30. Turning to `CC(NC(=O)NNS(=O)(=O)c1ccc([N+](=O)[O-])cc1)(C(F)(F)F)C(F)(F)F` [Example 48, N-2-(1,1,1,3,3,3-Hexafluoro-2-methylpropyl)-2-[(4-nitrophenyl)sulfonyl]hydrazine-1-carboxamide], the pEC50 was under 5.30. In the case of `COc1ccc(OC)c(S(=O)(=O)NNC(=O)NC(C)(C(F)(F)F)C(F)(F)F)c1` [Example 7, N-2-(1,1,1,3,3,3-Hexafluoro-2 methylpropyl)-2-[(3,6-dimethoxyphenyl)sulfonyl] hydrazine-1-carboxamide], the pEC50 was over 6.30. Under `CC(NC(=O)Nc1cccc(C#N)c1)(C(F)(F)F)C(F)(F)F` [Example 76, 1-(3-Cyanophenyl)-3-(2,2,2-trifluoro-1-methyl-1-trifluoromethylethyl)-urea] stands 5.30 to 6.00; under `CC(NC(=O)NNS(=O)(=O)c1ccc(C#N)cc1)(C(F)(F)F)C(F)(F)F` [Example 33, N-2-(1,1,1,3,3,3-Hexafluoro-2-methylpropyl)-2-[(4-cyanophenyl)sulfonyl]hydrazine-1-carboxamide], 5.30 to 6.00. The result for `CC(NC(=O)NNS(=O)(=O)c1cccc(C(F)(F)F)c1)(C(F)(F)F)C(F)(F)F` [Example 19] reads 6.00 to 6.30.

As to `CC(NC(=O)Nc1ccccc1OC(F)(F)F)(C(F)(F)F)C(F)(F)F` [Example 96, 1-(2-Trifluoromethoxyphenyl)-3-(2,2,2-trifluoro-1-methyl-1-trifluoromethylethyl)-urea], the pEC50 is under 5.30. Under `CC(NC(=O)NNS(=O)(=O)c1c(Cl)cccc1Cl)(C(F)(F)F)C(F)(F)F` [Example 44, N-2-(1,1,1,3,3,3-Hexafluoro-2-methylpropyl)-2-[(2,6-dichlorophenyl)sulfonyl]hydrazine-1-carboxamide] stands 5.30 to 6.00. For the compound `CC(NC(=O)Nc1ccc(S(N)(=O)=O)cc1)(C(F)(F)F)C(F)(F)F` [Example 87, 4-[3-(1,1-Bis-trifluoromethylethyl)-ureido]benzenesulfonamide], the pEC50 is under 5.30.

Turning to `Cc1ccc(S(=O)(=O)NNC(=O)NC(C)(C(F)(F)F)C(F)(F)F)cc1` [Example 11, N-2-(1,1,1,3,3,3-Hexafluoro-2-methylpropyl)-2-[(4-methylphenyl)sulfonyl]hydrazine-1-carboxamide], the pEC50 was over 6.30. Take `CC(NC(=O)NNS(=O)(=O)c1c(C(F)(F)F)cccc1C(F)(F)F)(C(F)(F)F)C(F)(F)F` [Example 45, N-2-(1,1,1,3,3,3-Hexafluoro-2-methylpropyl)-2-[(2,6-ditrifluoromethylphenyl)sulfonyl] hydrazine-1-carboxamide]: the pEC50 is 5.30 to 6.00. Under `COc1ccc(Cl)cc1S(=O)(=O)NNC(=O)NC(C)(C(F)(F)F)C(F)(F)F` [Example 6, N-2-(1,1,1,3,3,3-Hexafluoro-2-methylpropyl)-2-[(3-chloro-6-methoxyphenyl)sulfonyl]hydrazine-1-carboxamide] stands over 6.30; under `Cc1ccc(S(=O)(=O)N(C)NC(=O)NC(C)(C(F)(F)F)C(F)(F)F)cc1` [Example 43, N-2-(1,1,1,3,3,3-Hexafluoro-2-methylpropyl)-2-[(4-methylphenyl)sulfonyl]-2-methylhydrazine-1-carboxamide], 5.30 to 6.00.

`CC(NC(=O)Nc1ccc(Br)cc1Br)(C(F)(F)F)C(F)(F)F` [Example 93, 1-(2,4-Dibromophenyl)-3-(2,2,2-trifluoro-1-methyl-1-trifluoromethylethyl)-urea]: the pEC50 was under 5.30.

Regarding `CC(NC(=O)Nc1cccc(S(N)(=O)=O)c1)(C(F)(F)F)C(F)(F)F` [Example 79, 3-[3-(1,1-Bis-trifluoromethylethyl)-ureido]benzenesulfonamide], the negative-log EC50 (pEC50) was 5.30 to 6.00. Turning to `CC(NC(=O)NNS(=O)(=O)c1ccc(Br)cc1)(C(F)(F)F)C(F)(F)F` [Example 10, N-2-(1,1,1,3,3,3-Hexafluoro-2-methylpropyl)-2-[(4-bromophenyl)sulfonyl]hydrazine-1-carboxamide], the pEC50 is over 6.30.

Usually pEC50 stands for the negative decadic logarithm of the EC50, by convention in mol/L.

Source of the values: patent US8658697B2 (priority 2004, dated 2014).
